From patent US11548849B2, “Alcohol derivatives as KV7 potassium channel openers” (H. Lundbeck A/S, priority 2019, dated 2023)

biological target: T1, hKv7.2/hKv7.3 (Homo sapiens, UniProt O43525+O43526); assay: Automated whole cell patch-clamp functional test of HEK-hKv7.2/hKv7.3 cell line; type: cell-based; conditions: stable HEK-hKv7.2/hKv7.3 cell line
T1 construct: P2A self-cleaving peptide (between Kv7.3 and Kv7.2; the remnant would stay on the upstream protein) (C); expressed in transfected cells
Description: (§1) A synthesized cDNA fragment encoding human Kv7.3 and human Kv7.2 separated by a P2A sequence was inserted into the pcDNA5/FRT/TO vector using the BamHI and XhoI restriction sites. The construct was then transfected into HEK Flp-In 293 cells using Lipofectamine2000. The transfected cells were grown for 48 hours in DMEM containing 10% (v/v) FBS and 1% PenStrep and subsequently maintained under selection in DMEM containing 10% (v/v) FBS, 1% PenStrep and 200 ug/mL Hygromycin B at 37° C. in a humidified atmosphere of 5% CO2.

Question: `CCOC(=O)Nc1ccc(NCc2ccc(F)cc2)cc1N` [Retigabine, N-(2-amino-4-(4-fluorobenzylamino)-phenyl) carbamic acid ethyl ester] was tested. Which “effect on Kv7-current” value did it give?
Answer: The value was “potentiated”.

Question: With `O=C1c2ccccc2C(Cc2ccncc2)(Cc2ccncc2)c2ccccc21` [XE991] as the compound, how does the “effect on Kv7-current” value read?
Answer: The value was “sensitive”.

biological target: T1, hKv7.2/hKv7.3; assay: Thallium influx assay for potassium channel activation; type: cell-based; conditions: HEK-hKv7.2/hKv7.3 cells; FLIPR Potassium Assay kit; AUC readout normalized to a reference compound
Description: as §1
The thallium influx assay for potassium channel activation was performed analogously to a published procedure (C. D. Weaver, et al., J Biomol Screen 2004, 9, 671-677) using the FLIPR Potassium Assay kit (Molecular Devices). HEK-hKv7.2/hKv7.3 cells were plated onto 96-well, black-walled, clear-bottomed culture plates (Corning, Acton, Mass., USA) at a density of 80,000 cells/well (100 μl/well) if the cells were assayed the following day, or 40,000 cells/well (100 μl/well) if the cells were assayed two days after seeding.
On the assay day, the medium was removed after which 50 uL/well of test compound diluted to 2× final concentration in HBSS containing 20 mM HEPES, and 50 uL/well of 2× dye load buffer were added. The cells were then incubated for 60 min at room temperature in the dark. Chloride-free stimulation buffer containing Tl^+ and K^+ at 5× final concentration (5× concentration: 5 mM in both cases) and test compound at 1× final concentration, were prepared during the incubation. The cells were then assayed in a FDSS7000EX Functional Drug Screening System (Hamamatsu). Following 60 sec of baseline fluorescence signal reading at 0.1 Hz, and 10 sec at 1 Hz, 25 uL/well of stimulation buffer were added and the fluorescence continuously measured for 50 sec at 1 Hz followed, by 4 min at 0.1 Hz. Compound effect was quantified using AUC as readout and normalized to a reference compound, which was included on each plate.

Question: `CC[C@H](NC(=O)CC1(O)CC(F)(F)C1)c1cccc(OC(F)(F)F)c1` [Example 33, (S)-2-(3,3-difluoro-1-hydroxycyclobutyl)-N-(1-(3-(trifluoromethoxy)-phenyl)propy) acetamide] was tested. Which EC50 did it give?
Answer: The EC50 was 2100 nM.

Question: With `CC(C)C(C)(O)CC(=O)N[C@@H](COC(F)F)c1cccc(OC(F)F)c1` (single isomer, unassigned) [Example 14a] as the compound, how does the EC50 read?
Answer: The EC50 was 5200 nM.

Question: Which EC50 does the source give for `CCC[C@H](NC(=O)CC(O)C1CC(F)(F)C1)c1cccc(OC(F)F)c1` (single isomer, unassigned) [Example 7a] here?
Answer: The EC50 was 4000 nM.

Question: For `CC(C)CC(C)(O)CC(=O)N[C@@H](COC(F)F)c1cccc(OC(F)F)c1` (single isomer, unassigned) [Example 13b], which EC50 is on record?
Answer: Its EC50 is 360 nM.

Question: For `O=C(CC1(O)CC(F)(F)C1)N[C@@H](COC1CC1)c1cccc(OC(F)F)c1` [Example 29, (R)—N-(2-cyclopropoxy-1-(3-(difluoromethoxy)phenyl)ethyl)-2-(3,3-difluoro-1-hydroxycyclobutyl)acetamide], which EC50 is on record?
Answer: Its EC50 is 5400 nM.

Question: `CC(O)(CC(=O)N[C@@H](COC(F)F)c1cccc(OC(F)(F)F)c1)C1CC1` (single isomer, unassigned) [Example 11a] was tested. Which EC50 did it give?
Answer: Its EC50 is 5400 nM.

Question: How did the EC50 turn out when `CC(C)(C)[C@@H](O)CC(=O)N[C@@H](CC#N)c1cccc(OC(F)(F)F)c1` [Example 24, (S)—N—((S)-2-cyano-1-(3-(trifluoromethoxy)phenyl)ethyl)-3-hydroxy-4,4-dimethylpentanamide] was run?
Answer: Its EC50 is 2400 nM.

Question: How did the EC50 turn out when `CC(C)(C)C(O)CC(=O)N[C@@H](COC(F)F)c1cccc(OC(F)F)c1` (single isomer, unassigned) [Example 1b] was run?
Answer: The EC50 was 420 nM.

Question: With `C[C@H](NC(=O)C[C@H](O)C(C)(C)C)c1cccc(OC(F)F)c1` [Example 23, (S)—N—((S)-1-(3-(difluoromethoxy)phenyl)ethyl)-3-hydroxy-4,4-dimethylpentanamide] as the compound, how does the EC50 read?
Answer: Its EC50 is 1500 nM.

Question: How did the EC50 turn out when `O=C(CC(O)C1(C(F)(F)F)CC1)N[C@@H](COC(F)F)c1cccc(OC(F)(F)F)c1` (single isomer, unassigned) [Example 4b] was run?
Answer: The EC50 was 2900 nM.

Question: Which EC50 does the source give for `CC(C)(C)[C@@H](O)CC(=O)N[C@@H](COC(F)(F)F)c1cccc(OC(F)F)c1` [Example 18, (S)—N—((R)-1-(3-(difluoromethoxy)phenyl)-2-(trifluoromethoxy)ethyl)-3-hydroxy-4,4-dimethylpentanamide] here?
Answer: Its EC50 is 950 nM.

Question: How did the EC50 turn out when `O=C(CC(O)C1CC(F)(F)C1)N[C@@H](COC(F)F)c1cccc(OC(F)(F)F)c1` (single isomer, unassigned) [Example 6a] was run?
Answer: The EC50 was 2500 nM.

Question: `CC(O)(CC(=O)N[C@@H](COC(F)F)c1cccc(OC(F)(F)F)c1)C1CC1` (single isomer, unassigned) [Example 11b] was tested. Which EC50 did it give?
Answer: The EC50 was 1700 nM.

Question: For `O=C(CC(O)C1CCCC1)N[C@@H](COC(F)F)c1cccc(OC(F)F)c1` (single isomer, unassigned) [Example 16b], which EC50 is on record?
Answer: The EC50 was 430 nM.

Question: Which EC50 does the source give for `O=C(CC(O)C1(C(F)(F)F)CC1)N[C@@H](COC(F)F)c1cccc(OC(F)F)c1` (single isomer, unassigned) [Example 3a] here?
Answer: The EC50 was 2800 nM.

Question: How did the EC50 turn out when `CC(C)(C)C(O)CC(=O)N[C@@H](COC(F)F)c1cccc(OC(F)F)c1` (single isomer, unassigned) [Example 1a] was run?
Answer: Its EC50 is 7600 nM.

Question: For `COC[C@H](NC(=O)C[C@@](C)(O)C1(F)CC1)c1cccc(OC(F)(F)F)c1` (single isomer, unassigned) [Example 36b], which EC50 is on record?
Answer: Its EC50 is 16000 nM.

Question: `CC(O)(CC(=O)N[C@@H](COC(F)F)c1cccc(OC(F)F)c1)C1(F)CC1` (single isomer, unassigned) [Example 9b] was tested. Which EC50 did it give?
Answer: The EC50 was 9200 nM.

Question: How did the EC50 turn out when `CCC1(C(O)CC(=O)N[C@@H](COC(F)F)c2cccc(OC(F)F)c2)CC1` (single isomer, unassigned) [Example 8b] was run?
Answer: Its EC50 is 1200 nM.
